This is an account of results in patent publication US8828906B2, “Active compound combinations having insecticidal and acaricidal properties” (Bayer CropScience AG, priority 2009, dated 2014).

Common to all, as to assay type: in vivo
For test [1], the system named is Myzus persicae. Put plainly: Myzus persicae test on cabbage. The conditions noted are these: cabbage leaves sprayed. The procedure: (§1) Solvents: 78 parts by weight of acetone
(§2) • 1.5 parts by weight of dimethylformamide Emulsifier: 0.5 part by weight of alkylaryl polyglycol ether
(§3) To produce a suitable preparation of active compound, 1 part by weight of active compound is mixed with the stated amount of solvent and emulsifier, and the concentrate is diluted with emulsifier-containing water to the desired concentration.
Cabbage leaves (Brassica oleracea) which are heavily infested by the green peach aphid (Myzus persicae) are treated by spraying with the active compound preparation of the desired concentration.
(§4) After the desired period of time, the kill in % is determined. 100% means that all of the aphids have been killed; 0% means that none of the aphids have been killed. The kill rates determined are entered into Colby's formula (see above).

A further test deals with Phaedon cochleariae. Kind of test: Phaedon cochleariae larvae test. The conditions noted are these: cabbage leaves sprayed. The procedure:
as §1, §2, §3
Cabbage leaves (Brassica oleracea) are treated by spraying with the active ingredient formulation of the desired concentration and populated with larvae of the mustard beetle (Phaedon cochleariae) while the leaves are still moist.
After the desired period of time, the kill in % is determined. 100% means that all beetle larvae have been killed; 0% means that none of the beetle larvae have been killed. The kill rates determined are entered into Colby's formula (see above).

A further test concerns Tetranychus urticae. Put plainly: Tetranychus urticae test (OP-resistant/spray treatment). The settings on record: bean leaf discs sprayed. On the procedure:
as §1, §2, §3
Discs of bean leaves (Phaseolus vulgaris) which are infested by all stages of the greenhouse red spider mite (Tetranychus urticae) are sprayed with an active compound preparation of the desired concentration.
After the desired period of time, the effect in % is determined. 100% means that all of the spider mites have been killed; 0% means that none of the spider mites have been killed.

The next test relates to Spodoptera frugiperda. Put plainly: Spodoptera frugiperda larvae test. The conditions noted are these: cabbage leaves sprayed. On the procedure: as §1, §2, §3
Cabbage leaves (Brassica oleracea) are treated by being sprayed with the preparation of active compound of the desired concentration and are populated with larvae of the armyworm (Spodoptera frugiperda) while the leaves are still moist.
After the desired period of time, the kill in % is determined. 100% means that all caterpillars have been killed; 0% means that none of the caterpillars have been killed. The kill rates determined are entered into Colby's formula (see above).

Test [2] concerns Myzus persicae. Kind of test: Myzus persicae test on bell pepper. The conditions noted are these: 0.8 g/ha, bell-pepper plants sprayed. The procedure:
Solvent: 7 parts by weight of dimethylformamide
Emulsifier: 2 parts by weight of alkylaryl polyglycol ether
as §3
Bell-pepper plants (Capsicum annuum) which are heavily infested by the green peach aphid (Myzus persicae) are treated by spraying with the active compound preparation of the desired concentration.
as §4

`CC1(C)C(C=C(Cl)Cl)C1C(=O)OC(C#N)c1cccc(Oc2ccccc2)c1` (stereo not drawn) [alpha-cypermethrin]: in the test with Myzus persicae [1] (0.16 g/ha), the “Kill in % after 1d” value is 30%.
Regarding `CC1(C)C(C=C(Cl)Cl)C1C(=O)OC(C#N)c1ccc(F)c(Oc2ccccc2)c1` (stereo not drawn) [beta-cyfluthrin], the “Kill in % after 1d” value in the test on Myzus persicae [1] (0.16 g/ha) is 40%. In addition, the results for the “Kill in % after 2d” value with Phaedon cochleariae (0.8 g/ha) and in the test on Phaedon cochleariae (4 g/ha) were 50% and 83%, respectively.
`Cc1c(COC(=O)C2C(/C=C(\Cl)C(F)(F)F)C2(C)C)cccc1-c1ccccc1` (stereo not drawn) [bifenthrin]: in the test on Myzus persicae [1] (0.032 g/ha), the “Kill in % after 6d” value worked out at 0%. Also, the “Kill in % after 1d” value in the test on Myzus persicae [1] (0.16 g/ha) was determined as 20%. Also, the “Kill in % after 2d” value was determined as 30% in the test with Tetranychus urticae (4 g/ha) and 67% in the test with Phaedon cochleariae (4 g/ha).
As for `O=C1C=C(N(CCF)Cc2ccc(Cl)nc2)CO1` [compound (I-4), 4-{[(6-chloropyrid-3-yl)methyl](2-fluoroethyl)amino}furan-2(5H)-one], the “Kill in % after 1d” value with Myzus persicae [1] (4 g/ha) was 30%. Besides, the “Kill in % after 2d” value in the test on Spodoptera frugiperda (20 g/ha), in the test on Spodoptera frugiperda (100 g/ha) and in the test on Tetranychus urticae (100 g/ha) was 0% throughout. The “Kill in % after 6d” value in the test with Phaedon cochleariae (20 g/ha) and in the test with Phaedon cochleariae (100 g/ha) was 0% each time.
For `O=C1C=C(N(Cc2ccc(Cl)nc2)CC(F)F)CO1` [compound (I-5), 4-{[(6-chloropyrid-3-yl)methyl](2,2-difluoroethyl)amino}furan-2(5H)-one], the “Kill in % after 1d” value in the test with Myzus persicae [1] (0.8 g/ha) worked out at 10%. For the same molecule, the “Kill in % after 6d” value in the test with Myzus persicae [1] (0.8 g/ha) stood at 10%; with Myzus persicae [2] it was 45%. Also, the “Kill in % after 2d” value in the test on Spodoptera frugiperda (20 g/ha), in the test with Spodoptera frugiperda (100 g/ha) and with Phaedon cochleariae (20 g/ha) was 0% each time.
Regarding `CN(Cc1cnc(Cl)c(F)c1)C1=CC(=O)OC1` [compound (I-6), 4-{[(6-chloro-5-fluorpyrid-3-yl)methyl](methyl)amino}furan-2(5H)-one], the “Kill in % after 2d” value in the test on Spodoptera frugiperda (20 g/ha), in the test on Spodoptera frugiperda (100 g/ha), in the test with Phaedon cochleariae (4 g/ha) and in the test on Phaedon cochleariae (100 g/ha) was 0% throughout. In addition, the “Kill in % after 6d” value in the test on Phaedon cochleariae (100 g/ha) worked out at 0%.
`CC1(C)C(C=C(Cl)Cl)C1C(=O)OC(C#N)c1cccc(Oc2ccccc2)c1` (stereo not drawn) [cypermethrin]: the results for the “Kill in % after 1d” value in the test with Myzus persicae [1] (0.16 g/ha) and in the test on Myzus persicae [1] (0.8 g/ha) were 10% and 20%, respectively.
Regarding `CC1(C)[C@H](C(=O)OC(C#N)c2cccc(Oc3ccccc3)c2)[C@@H]1C=C(Br)Br` (stereo partly drawn) [deltamethrin], in the test with Myzus persicae [1] (0.032 g/ha), the “Kill in % after 6d” value turned out to be 0%. Besides, the “Kill in % after 2d” value with Spodoptera frugiperda (0.8 g/ha) amounted to 50%.
For the molecule `CC1(C)[C@H](C(=O)O[C@@H](C#N)c2cccc(Oc3ccccc3)c2)[C@@H]1/C=C(\Cl)C(F)(F)F` [gamma-cyhalothrin], the “Kill in % after 1d” value in the test on Myzus persicae [1] (0.16 g/ha) was 0%. Further, the “Kill in % after 2d” value with Spodoptera frugiperda (4 g/ha) was found to be 67%.
As to `CC1(C)C(/C=C(\Cl)C(F)(F)F)C1C(=O)OC(C#N)c1cccc(Oc2ccccc2)c1` (stereo not drawn) [lambda-cyhalothrin], the “Kill in % after 1d” value in the test with Myzus persicae [1] (0.032 g/ha) is recorded as 0%. Moreover, the “Kill in % after 2d” value in the test on Spodoptera frugiperda (4 g/ha) was found to be 33%; with Tetranychus urticae (4 g/ha), 0%; in the test on Phaedon cochleariae (0.16 g/ha) it was 33%.
As for `CC1(C)[C@H](C=C(Cl)Cl)[C@H]1C(=O)OCc1c(F)c(F)cc(F)c1F` [transfluthrin], the “Kill in % after 6d” value with Myzus persicae [2] amounted to 0%.
